Reference: the supplement of paper PMC9663587

How the values were obtained:
Rucaparib = compound: CNCc1ccc(-c2[nH]c3cc(F)cc4c3c2CCNC4=O)cc1 [Rucaparib]
BVD523 = compound: CC(C)Nc1cc(-c2c[nH]c(C(=O)N[C@H](CO)c3cccc(Cl)c3)c2)c(Cl)cn1 [BVD523]
Cabozantinib = compound: COc1cc2nccc(Oc3ccc(NC(=O)C4(C(=O)Nc5ccc(F)cc5)CC4)cc3)c2cc1OC [Cabozantinib]
Torin2 = compound: C1=CC(=CC(=C1)N2C(=O)C=CC3=CN=C4C=CC(=CC4=C32)C5=CN=C(C=C5)N)C(F)(F)F [Torin2]
AZD1775 = compound: C=CCn1c(=O)c2cnc(Nc3ccc(N4CCN(C)CC4)cc3)nc2n1-c1cccc(C(C)(C)O)n1 [AZD1775]
Cediranib/AZD2171 = compound: COc1cc2c(Oc3ccc4[nH]c(C)cc4c3F)ncnc2cc1OCCCN1CCCC1 [Cediranib/AZD2171]
BSJ-03-123 = compound: CC(=O)c1c(C)c2cnc(Nc3ccc(N4CCN(CCOCCOCCOCCNC(=O)COc5cccc6c5C(=O)N(C5CCC(=O)NC5=O)C6=O)CC4)cn3)nc2n(C2CCCC2)c1=O [BSJ-03-123]
Pictilisib/GDC0941 = compound: CS(=O)(=O)N1CCN(Cc2cc3nc(-c4cccc5[nH]ncc45)nc(N4CCOCC4)c3s2)CC1 [Pictilisib/GDC0941]
[1] = compound: Cc1nn(C)c(COc2ccc(N3CCN(S(=O)(=O)N(C)C)CC3)cc2)c1-c1cccc2c(CCCOc3cccc4ccccc34)c(C(=O)O)n(CCN3CCOCC3)c12
Paclitaxel = compound: CC(=O)O[C@H]1C(=O)[C@@]2(C)[C@H]([C@H](OC(=O)c3ccccc3)[C@]3(O)C[C@H](OC(=O)[C@H](O)[C@@H](NC(=O)c4ccccc4)c4ccccc4)C(C)=C1C3(C)C)[C@]1(OC(C)=O)CO[C@@H]1C[C@@H]2O [Paclitaxel]
Neratinib/HKI272 = compound: CCOc1cc2ncc(C#N)c(Nc3ccc(OCc4ccccn4)c(Cl)c3)c2cc1NC(=O)/C=C/CN(C)C [Neratinib/HKI272]
Olaparib/AZD2281 = compound: O=C(c1cc(Cc2n[nH]c(=O)c3ccccc23)ccc1F)N1CCN(C(=O)C2CC2)CC1 [Olaparib/AZD2281]
[2] = compound: CC(=O)c1c(C)c2cnc(Nc3ccc(N4CCNCC4)cn3)nc2n(C2CCCC2)c1=O
Dasatinib = compound: Cc1nc(Nc2ncc(C(=O)Nc3c(C)cccc3Cl)s2)cc(N2CCN(CCO)CC2)n1 [Dasatinib]
Volasertib/BI6727 = compound: CC[C@@H]1C(=O)N(C)c2cnc(Nc3ccc(C(=O)N[C@H]4CC[C@H](N5CCN(CC6CC6)CC5)CC4)cc3OC)nc2N1C(C)C [Volasertib/BI6727]
Buparlisib/NVP-BKM120 = compound: Nc1cc(C(F)(F)F)c(-c2cc(N3CCOCC3)nc(N3CCOCC3)n2)cn1 [Buparlisib/NVP-BKM120]
Luminespib/NVP-AUY922 = compound: CCNC(=O)c1noc(-c2cc(C(C)C)c(O)cc2O)c1-c1ccc(CN2CCOCC2)cc1 [Luminespib/NVP-AUY922]
THZ1 = compound: CN(C)C/C=C/C(=O)Nc1ccc(C(=O)Nc2cccc(Nc3ncc(Cl)c(-c4c[nH]c5ccccc45)n3)c2)cc1 [THZ1]
AZD5363 = compound: NC1(C(=O)N[C@@H](CCO)c2ccc(Cl)cc2)CCN(c2nc[nH]c3nccc2-3)CC1 [AZD5363]
Ceritinib/LDK378 = compound: Cc1cc(Nc2ncc(Cl)c(Nc3ccccc3S(=O)(=O)C(C)C)n2)c(OC(C)C)cc1C1CCNCC1 [Ceritinib/LDK378]
THZ-P1-2 = compound: CN(C)C/C=C/C(=O)NC1=CC=C(C=C1)C(=O)NC2=CC=CC(=C2)NC3=NC=NC(=C3)C4=CNC5=CC=CC=C54 [THZ-P1-2]
TGX221 = compound: CC1=CN2C(=O)C=C(N=C2C(=C1)C(C)NC3=CC=CC=C3)N4CCOCC4 [TGX221]
INK128/MLN0128 = compound: CC(C)n1nc(-c2ccc3oc(N)nc3c2)c2c(N)ncnc21 [INK128/MLN0128]
[3] = compound: CCCCOc1c(C(=O)c2c(F)cc(C)cc2F)c[nH]c2nncc1-2
[4] = compound: CNc1nc(-c2ccc3c(N)n[nH]c3c2)cc(N2C[C@@H](C(=O)NC3CCCCC3)CC[C@H]2C)n1
R0-3306 = compound: C1=CC2=C(C=CC(=C2)C=C3C(=O)NC(=NCC4=CC=CS4)S3)N=C1 [R0-3306]
THZ531 = compound: CN(C)C/C=C/C(=O)Nc1ccc(C(=O)N2CCC[C@@H](Nc3ncc(Cl)c(-c4c[nH]c5ccccc45)n3)C2)cc1 [THZ531]
Alpelisib/BYL719 = compound: Cc1nc(NC(=O)N2CCC[C@H]2C(N)=O)sc1-c1ccnc(C(C)(C)C(F)(F)F)c1 [Alpelisib/BYL719]
LEE011/Ribociclib = compound: CN(C)C(=O)c1cc2cnc(Nc3ccc(N4CCNCC4)cn3)nc2n1C1CCCC1 [LEE011/Ribociclib]
Doxorubicin = compound: COc1cccc2c1C(=O)c1c(O)c3c(c(O)c1C2=O)C[C@@](O)(C(=O)CO)C[C@@H]3O[C@H]1C[C@H](N)[C@H](O)[C@H](C)O1 [Doxorubicin]
SHP099 = compound: CC1(CCN(CC1)C2=CN=C(C(=N2)N)C3=C(C(=CC=C3)Cl)Cl)N [SHP099]
senexin b = compound: CN1CCN(C(=O)c2ccc3cc(CCNc4ncnc5ccc(C#N)cc45)ccc3c2)CC1 [senexin b]
[5] = compound: CCc1cnn2c(NCc3ccc[n+]([O-])c3)cc(N3CCCC[C@H]3CCO)nc12
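Further: breast cancer and non-malignant breast epithelial cell lines, Deep Dye Drop or Dye Drop imaging, nine half-log doses, GR normalized to time-zero plates and DMSO-only controls.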

| Cell Line | GR50, 72 h (Rucaparib) [µM] | GR50, 72 h (BVD523) [µM] | GR50, 72 h (Cabozantinib) [µM] | GR50, 72 h (Torin2) [µM] | GR50, 72 h (AZD1775) [µM] | GR50, 72 h (Cediranib/AZD2171) [µM] | GR50, 72 h (BSJ-03-123) [µM] | GR50, 72 h (Pictilisib/GDC0941) [µM] | GR50, 72 h [1] [µM] | GR50, 72 h (Paclitaxel) [µM] | GR50, 72 h (Neratinib/HKI272) [µM] | GR50, 72 h (Olaparib/AZD2281) [µM] | GR50, 72 h [2] [µM] | GR50, 72 h (Dasatinib) [µM] | GR50, 72 h (Volasertib/BI6727) [µM] | GR50, 72 h (Buparlisib/NVP-BKM120) [µM] | GR50, 72 h (Luminespib/NVP-AUY922) [µM] | GR50, 72 h (THZ1) [µM] | GR50, 72 h (AZD5363) [µM] | GR50, 72 h (Ceritinib/LDK378) [µM] | GR50, 72 h (THZ-P1-2) [µM] | GR50, 72 h (TGX221) [µM] | GR50, 72 h (INK128/MLN0128) [µM] | GR50, 72 h [3] [µM] | GR50, 72 h [4] [µM] | GR50, 72 h (R0-3306) [µM] | GR50, 72 h (THZ531) [µM] | GR50, 72 h (Alpelisib/BYL719) [µM] | GR50, 72 h (LEE011/Ribociclib) [µM] | GR50, 72 h (Doxorubicin) [µM] | GR50, 72 h (SHP099) [µM] | GR50, 72 h (senexin b) [µM] | GR50, 72 h [5] [µM] |
| --- | --- | --- | --- | --- | --- | --- | --- | --- | --- | --- | --- | --- | --- | --- | --- | --- | --- | --- | --- | --- | --- | --- | --- | --- | --- | --- | --- | --- | --- | --- | --- | --- | --- |
| MGH312 | > 10 | > 10 | 6.89 | 0.00596 | 1.27 | 3.88 | 4.41 | 0.0806 | > 10 | 0.00266 | 0.168 | > 10 | > 3.16 | 0.00371 | 0.00804 | 0.347 | 0.00379 | 0.00839 | < 0.001 | 1.23 | 4.45 | 0.155 | 0.00245 | 0.00785 | 0.0356 | 5.42 | 0.0332 | 6.6 | > 10 | 0.00621 | > 10 | 0.511 | 0.0108 |
| ZR7530 | > 10 | > 10 | – | 0.0216 | 1.91 | 7.57 | 0.58 | 0.217 | > 10 | 0.00474 | 0.000681 | > 10 | 0.0889 | 0.372 | 0.00621 | 0.534 | 0.00303 | 0.0259 | 0.192 | 1.75 | 1.64 | > 10 | 0.0153 | 0.152 | – | 6.17 | 0.0583 | 0.246 | 0.692 | 0.0148 | > 10 | 1.48 | 0.0163 |
| MCF10A (GM) | > 10 | 1.51 | – | – | 5.15 | – | 2.21 | – | – | – | – | – | – | – | – | – | – | 0.0449 | > 10 | – | 7.51 | – | – | 0.355 | > 10 | 6.32 | 0.428 | – | > 10 | – | > 10 | > 10 | – |
| PDX1206 | > 10 | > 10 | – | – | 0.313 | – | 4.35 | – | – | – | – | – | – | – | – | – | – | 0.0255 | 0.457 | – | > 10 | – | – | 0.00176 | 1.86 | 3.6 | 0.0456 | – | > 10 | – | > 10 | 1.18 | – |
| BT474 | > 10 | > 10 | > 10 | 0.00998 | 0.621 | > 10 | 0.235 | 0.188 | > 10 | 0.00412 | 0.00166 | > 10 | > 3.16 | 0.0392 | 0.00821 | 0.281 | 0.00444 | 0.0129 | – | > 10 | 5.82 | > 10 | 0.00873 | > 10 | 1.3 | 3.53 | 0.0537 | 0.309 | > 10 | 0.0267 | > 10 | 5.65 | 0.0162 |
